What all share (assay): NCI anticancer screen, dose series, 48 h
Test [1] deals with 786-0 renal.
Test [2] concerns CCRF-CEM leukemia.
The subject of test [3] is EKVX NSCLC.
In test [4] the test system is HCC-2998 colon.
The test system of test [5] is HCT-15 colon.
For test [6], the system named is IGROV1 ovarian.
Test [7] relates to NCI-H226 lung.
Test [8] deals with OVCAR-3 ovarian.
Test [9] relates to MOLT-4 leukemia.
For test [10], the system named is SK-MEL-28 melanoma.

Values joined by “and” are separate entries in the source; they are usually repeats but may differ in a detail not shown here. Equal entries are not always repeated.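 Tested at 5 concentrations; 48 h exposure; 96-well plates; endpoints linearly interpolated, else capped at highest concentration. GI50 is the concentration that inhibits growth by half. TGI is the concentration that stops growth completely.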

In PubChem BioAssay (NCI) one finds TGI and GI50 data, which are given here for nine compounds.

Take `CCCCCCCCSC1=C(Cl)C(=O)C(OC)=C(OC)C1=O`: the TGI in [1] was 30 µM; in test [2], above 100 µM; in [3] it was 24.9 µM; in test [4] it was 32.4 µM; in test [5] it was 72.5 µM; in test [6] it was 32.2 µM. The TGI turned out to be 34.6 µM in test [7] and 23.8 µM in test [8].

For `COc1c(C)c(OCC=C(C)C)cc(CO)c1CO`, the TGI in test [1], in test [2], in test [3], in test [4], in [5] and in [6] was above 100 µM each time. For the same compound, the TGI in [9] and in [7] was above 100 µM each time.

On to `CC(C)=CCC1=C(O)c2ccccc2C(=O)C1=O`, for which the GI50 in test [1] was > 100 µM and 21.6 µM and 26.1 µM; in [3], 57.7 µM; in [6], > 100 µM and 46.2 µM and 14.8 µM; in test [10], > 100 µM and 23 µM. Further, the TGI was above 100 µM in [1]; > 100 µM and 18.5 µM in test [2]; above 100 µM in test [3]; above 100 µM in test [4]; above 100 µM in [5]; above 100 µM in test [6]. Also, the TGI in [7], in test [8] and in test [10] was above 100 µM each time.

As to `COc1cc(C[P+](c2ccccc2)(c2ccccc2)c2ccccc2)cc(OC)c1OC`, the TGI in test [1], in test [2], in test [3], in test [4], in [5] and in [6] was above 100 µM each time. The TGI in test [7], in [8] and in [10] was above 100 µM throughout.

Regarding `Cc1nc2sccn2c1-c1nc2sccn2c1/C=C1/C(=O)Nc2ccccc21`, the GI50 in test [1] is 1.79 µM; in test [2] it was 3.79 µM; in test [3], 7.45 µM; in test [4], 8.3 µM; in [5] it was 3.09 µM; in test [6], 1.92 µM. In addition, the GI50 in test [7] is 9.79 µM; in [8] it was 1.7 µM; in test [10] it was 5.42 µM. In addition, the TGI is 24.7 µM in test [1]; above 100 µM in [2]; 55.3 µM in [3]; 29.8 µM in [4]; 20.7 µM in test [5]; 7.77 µM in test [6]. In addition, the TGI in [7] was above 100 µM; in test [8], 6.24 µM; in [10], 46.2 µM.

For `NCCCn1c2c(c3ccc([N+](=O)[O-])cc3c1=O)C(=O)c1cc(I)ccc1-2`, the GI50 was 0.021 µM in test [1]; below 0.01 µM in test [2]; 0.79 µM in [3]; 0.307 µM in test [4]; 0.17 µM in [5]; below 0.01 µM in test [9]. Besides, the figures for the GI50 in test [7] and in test [8] were 0.786 µM and 1.19 µM, respectively. Further, the TGI in test [1] was found to be 1.14 µM; in test [2] it was 0.279 µM; in [3], 2.32 µM; in [4], 1.71 µM; in test [5] it was 1.79 µM; in [9], 0.251 µM. The TGI in [7] stood at 26.2 µM; in [8], 2.9 µM.

Consider `Cc1cc(C(=O)CSC(=S)SC(C)(C)C)ccc1Cl`, for which the TGI is 74.4 µM in test [1]; 56.8 µM in [3]; 30.3 µM in test [4]; 57.6 µM in [5]; above 100 µM in test [6]; 62.9 µM in [9]. Besides, the values for the TGI in test [7], in [8] and in [10] were 42.7 µM, 35.4 µM and 35.6 µM, respectively.

`FC(F)(F)c1ccc2nc(NCc3ccccc3)c(-c3ccccc3)nc2c1`: the TGI is 53.1 µM in [1]; above 100 µM in [2]; above 100 µM in test [3]; above 100 µM in test [4]; above 100 µM in test [5]; 72.5 µM in test [9]. The TGI in [7], in test [8] and in [10] was above 100 µM in each case.

As to `Oc1oc(C(=C2N=c3ccccc3=N2)c2ccc(Cl)cc2)c(O)c1-c1ccc(Cl)cc1`, the TGI in [1] is above 100 µM; in test [2], above 100 µM; in [3] it was 7.41 µM; in test [4] it was 20.8 µM; in test [6] it was above 100 µM; in test [9] it was 7.53 µM. Further, the results for the TGI in test [7], in [8] and in test [10] were 6.81 µM, above 100 µM and 33.7 µM, respectively.
